Data on two molecules can be found in the NIST ThermoML archive (doi:10.1021/je700339f).

Numbers after ± are expanded uncertainties.

The mass density is the mass of a sample divided by its volume.

The conditions of this data set: 101.33 kPa, Liquid.

Turning to `CN(C)C=O` [dimethylformamide], the mass density (298.15 K) is listed as 943.8 ± 0.4 kg/m3 and the mass density (308.15 K) came out at 934.2 ± 0.4 kg/m3.
On to `CC(=O)N(C)C` [N,N-dimethylethanamide], for which the mass density (298.15 K) was 937 ± 0.4 kg/m3 and the mass density (308.15 K) is recorded as 926.9 ± 0.4 kg/m3.
